The values below come from patent US20230364057A1, “BACTERIAL DNA GYRASE INHIBITORS AND METHODS OF USE THEREOF” (THE FLORIDA INTERNATIONAL UNIVERSITY BOARD OF TRUSTEES, priority 2022, published 2023).

The target in assay [1] is T1, E. coli DNA gyrase (Escherichia coli (strain K12), UniProt P0AES4+P0AES6). Put plainly: Agarose gel-based DNA gyrase inhibition assay. The class given is biochemical. Here is the method:
100 ng of DNA gyrase was used to supercoil the rx pAB1 in the presence of different concentrations of a gyrase inhibitor. […] Samples were analyzed by electrophoresis in 1% w/v agarose gels followed by ethidium bromide staining and photographed under UV light.

The target in assay [2] is T1, E. coli DNA gyrase. Description: biochemical. The class given is biochemical.
The mark [3] stands for this setting: IC50 (50-200 µM), bin of Table 2.
The mark [4] stands for this setting: IC50 ([…]-50 µM), bin of Table 2.
Where [5] appears, read: IC50 against E. coli DNA gyrase.
Where [6] appears, read: IC50 (15-[…] µM), bin of Table 2.

As usually defined, the IC50 is the point on the concentration scale where inhibition reaches its midpoint. `CCOC(=O)C1=C(C)NC(=O)NC1c1ccc(N2CCC(c3ccccc3)=N2)cc1` (centres unmarked) [Compound 68]: the “inhibition of E. coli DNA gyrase activities” value (“inhibition” below) in assay [1] (200 µM of compounds) was “almost completely inhibited”. Besides, the IC50 in assay [2] (setting [3]) fell in the range of 50 to 200 µM.

Regarding `O=C1c2ccccc2C(=O)c2c1ccc(O)c2O` [Compound 256, Alizarin], the “inhibition” value in assay [1] (200 µM of compounds) is recorded as “completely inhibited”. Further, the IC50 in assay [2] (setting [4]) was 25 to 50 µM; in assay [2] (setting [5]), less than 10 µM.

For `COc1ccc(-c2cc(-c3ccco3)nc(O)c2C#N)cc1OC` [Compound 28], in assay [1] (200 µM of compounds), the “inhibition” value is “almost completely inhibited”. The IC50 in assay [2] (setting [3]) lay within 50 to 200 µM.

As to `O=C1N/C(=N\c2ccc3ccccc3c2)S/C1=C/c1ccco1` [Compound 163], in assay [1] (50 µM of compounds), the “inhibition” value is on record as “completely inhibited”. In assay [2] (setting [6]), this compound came in with a 50% inhibitory concentration (IC50) of 15 to 25 µM.

On to `O=C(O)C1Nc2ccccc2C2C=CCC12` (centres unmarked) [Compound 83], for which the “inhibition” value in assay [1] (50 µM of compounds) is “almost completely inhibited”; in assay [1] (200 µM of compounds), “completely inhibited”; in assay [2], “inhibit E. coli DNA gyrase strongly”. Also, the IC50 in assay [2] (setting [3]) fell in the range of 50 to 200 µM.

As for `Cc1cc2c3c(c1)C1CC=CC1C(C(=O)O)N3CC1CC=CC21` (centres unmarked) [Compound 106], the “inhibition” value is “potently inhibited” in assay [1] (50 µM of compounds) and “inhibit E. coli DNA gyrase strongly” in assay [2]. In assay [2] (setting [3]), the IC50 lay within 50 to 200 µM.

For the compound `CCN(CCCNc1cc2c(c(N)c1S(=O)(=O)O)C(=O)c1ccccc1C2=O)c1ccccc1` [Compound 215], the “inhibition” value in assay [1] (50 µM of compounds) and in assay [1] (200 µM of compounds) was “completely inhibited” in each case. This compound also yielded an IC50 in assay [2] (setting [4]) of 25 to 50 µM.

As for `O=C(NN1C(=O)/C(=C\C=C\c2ccco2)SC1=S)c1ccccc1O` [Compound 180], the “inhibition” value in assay [1] (50 µM of compounds) is listed as “completely inhibited”. In assay [2] (setting [6]), this compound came in with an IC50 of 15 to 25 µM.

As to `N#Cc1sc2nc(-c3ccccc3)cc(-c3ccco3)c2c1N` [Compound 167], the “inhibition” value in assay [1] (50 µM of compounds) was “potently inhibited”. The same compound returned an IC50 in assay [2] (setting [3]) of 50 to 200 µM.

As to `CCCn1c(/C=C/c2ccco2)nc2ccccc21` [Compound 53], the results for the “inhibition” value in assay [1] (50 µM of compounds) and in assay [1] (200 µM of compounds) were “almost completely inhibited” and “completely inhibited”, respectively. The compound further yielded an IC50 in assay [2] (setting [3]) of 50 to 200 µM.

On to `CCOC(=O)[C@@H]1Nc2ccc(C(=O)O)cc2[C@@H]2C=CC[C@H]12` [Compound 141], for which the “inhibition” value in assay [1] (50 µM of compounds) is “potently inhibited”; in assay [2] it was “inhibit E. coli DNA gyrase strongly”.

With `Cc1cc(/C=C2\SC(=S)N=C2O)c(C)n1-c1ccccc1` [Compound 29], the “inhibition” value in assay [1] (50 µM of compounds) and in assay [1] (200 µM of compounds) was “completely inhibited” each time. For the same compound, the IC50 in assay [2] (setting [4]) was in the range of 25 to 50 µM.

Regarding `CCc1ccc(OCC(=O)/N=c2/[nH]nc(-c3ccco3)s2)cc1` [Compound 22], the “inhibition” value in assay [1] (200 µM of compounds) was “completely inhibited”. The compound also came in with a concentration for half-maximal inhibition (IC50) in assay [2] (setting [3]) of 50 to 200 µM.

Turning to `O=C1/C(=C\c2ccc(O)cc2)SC(=S)N1/N=C/c1ccc(O)cc1` [Compound 35], the “inhibition” value in assay [1] (50 µM of compounds) and in assay [1] (200 µM of compounds) was “completely inhibited” in each case. The IC50 in assay [2] (setting [4]) lay within 25 to 50 µM.

Take `O=C(Cc1ccccc1)c1ccccn1` [Compound 213]: the “inhibition” value in assay [1] (200 µM of compounds) is “completely inhibited”. In assay [2] (setting [3]), this compound showed an IC50 of 50 to 200 µM.

Regarding `O=C1/C(=C/c2ccc(O)cc2)SC(=S)N1Cc1cccnc1` [Compound 168], the “inhibition” value in assay [1] (50 µM of compounds) is given as “potently inhibited”. This compound also showed an IC50 in assay [2] (setting [3]) of 50 to 200 µM.

For the compound `O=C1C(Cl)=C(NCCc2ccccc2)C(=O)c2ccccc21` [Compound 205], in assay [1] (200 µM of compounds), the “inhibition” value is on record as “potently inhibited”. For the same compound, the IC50 in assay [2] (setting [3]) lay within 50 to 200 µM.

Turning to `Cc1cc(C(=O)Nc2ccccc2C(=O)O)ccc1NC(=O)COc1ccccc1Cl` [Compound 65], in assay [1] (200 µM of compounds), the “inhibition” value is “almost completely inhibited”. The same compound yielded an IC50 in assay [2] (setting [3]) of 50 to 200 µM.

In the case of `O=C1OC2(c3ccccc31)c1cc(I)c(O)c(I)c1Oc1c2cc(I)c(O)c1I` [Compound 253, Erythrosin B], in assay [1] (200 µM of compounds), the “inhibition” value was “completely inhibited”. The compound also returned an IC50 in assay [2] (setting [5]) of less than 10 µM.

Take `COc1ccc(C2=NN(c3nc(-c4ccccc4)c(CC(=O)O)s3)C(c3ccco3)C2)cc1` (centres unmarked) [Compound 10]: in assay [1] (200 µM of compounds), the “inhibition” value is listed as “completely inhibited”. This compound yielded an IC50 in assay [2] (setting [3]) of 50 to 200 µM.

On to `CN(C)c1ccc(/C=C2/C(=O)N(CCc3ccc(F)cc3)C(=O)N=C2O)cc1` [Compound 38], for which the “inhibition” value in assay [1] (200 µM of compounds) is reported as “completely inhibited”. For the same compound, the IC50 in assay [2] (setting [3]) was 50 to 200 µM.

As to `CC(C)(C)N1C(=O)N=C(O)/C(=C\c2ccc3c(c2)CCN3CCCCl)C1=O` [Compound 23], the “inhibition” value in assay [1] (50 µM of compounds) and in assay [1] (200 µM of compounds) was “completely inhibited” each time. The IC50 in assay [2] (setting [4]) lay within 25 to 50 µM.

In the case of `Cc1cc(O)c2c(c1)C(=O)c1cc(O)cc(O)c1C2=O` [Compound 242, Emodin], the “inhibition” value in assay [1] (200 µM of compounds) is “completely inhibited”; in assay [2], “potently inhibited”. Besides, the IC50 in assay [2] (setting [3]) was in the range of 50 to 200 µM.

Regarding `N#CC(C#N)=C1C=CC=CN1C(=Cc1ccccc1)C(=O)c1cccs1` [Compound 131], in assay [1] (50 µM of compounds), the “inhibition” value is listed as “potently inhibited”. The compound also had an IC50 in assay [2] (setting [3]) of 50 to 200 µM.

As for `Cc1ccc(/N=C2N=C(O)/C(=C/C=C/c3ccco3)S\2)cc1C` [Compound 169], the “inhibition” value in assay [1] (50 µM of compounds) is given as “completely inhibited”. Moreover, the IC50 in assay [2] (setting [6]) lay within 15 to 25 µM.

For `CCOc1ccc(S(=O)(=O)Nc2nc3ccccc3nc2Nc2ccc(N3CCOCC3)cc2)cc1` [Compound 130], the “inhibition” value in assay [1] (50 µM of compounds) is given as “potently inhibited”. Besides, in assay [2] (setting [3]), the IC50 fell in the range of 50 to 200 µM.

In the case of `N#CC(=Cc1ccc(C(=O)O)cc1)c1nc2sc3c(c2c(=O)[nH]1)CCCC3` [Compound 12], the “inhibition” value in assay [1] (50 µM of compounds) and in assay [1] (200 µM of compounds) was “completely inhibited” in each case. This compound also had a 50% inhibitory concentration (IC50) in assay [2] (setting [4]) of 25 to 50 µM.

`Cc1cc(-c2csc(N)n2)c(C)n1-c1ccccc1.Cl` [Compound 70]: the “inhibition” value in assay [1] (200 µM of compounds) is listed as “completely inhibited”. The compound further yielded an IC50 in assay [2] (setting [3]) of 50 to 200 µM.

For `O=C(NCc1cccnc1)c1ccc(-c2cccc(Cl)c2Cl)o1` [Compound 56], the “inhibition” value in assay [1] (200 µM of compounds) is given as “almost completely inhibited”. This compound also yielded an IC50 in assay [2] (setting [3]) of 50 to 200 µM.

Turning to `CCN1C(=O)C(=CC=CN(C)c2ccccc2)SC1=S` [Compound 227], the “inhibition” value in assay [1] (200 µM of compounds) is given as “potently inhibited”. Moreover, the IC50 in assay [2] (setting [3]) lay in the range of 50 to 200 µM.

With `C(=Cc1ccco1)c1nc2ccccc2[nH]1` [Compound 129], the “inhibition” value in assay [1] (50 µM of compounds) was “potently inhibited”. Further, the concentration for half-maximal inhibition (IC50) in assay [2] (setting [3]) was 50 to 200 µM.

Consider `c1ccc(Nc2nc(N3CCCC3)c3ccccc3n2)cc1` [Compound 102], for which the “inhibition” value in assay [1] (50 µM of compounds) is “completely inhibited”. For the same compound, the IC50 in assay [2] (setting [4]) lay in the range of 25 to 50 µM.

For `O=C(Nc1nc2cc3c(cc2s1)OCO3)C1CC1` [Compound 15], the “inhibition” value in assay [1] (200 µM of compounds) was “completely inhibited”. The IC50 in assay [2] (setting [3]) lay within 50 to 200 µM.
